Data as given in paper PMC4753070 (Bioorganic & medicinal chemistry letters, 2016).
“Also recorded” adds a separate entry of the source.

Columns and labels:
[1] = test system: histone H4K12 acetylation in mouse forebrain primary neuronal cultures; assay: Neuronal histone acetylation assay, H4K12ac immunofluorescence; type: cell-based; settings: 1 and 10 μM, 24 hrs, relative to SAHA
[2] = test system: histone H3K9 acetylation in mouse forebrain primary neuronal cultures; assay: Neuronal histone acetylation assay, H3K9ac immunofluorescence; type: cell-based; settings: 1 and 10 μM, 24 hrs, relative to SAHA
[3] = test system: recombinant human HDAC1-3; assay: In vitro HDAC1-3 inhibition, potency comparison across the three isoforms; type: biochemical
[4] = mouse, intraperitoneal 25 mg/kg; cited from earlier work
[5] = target: HDAC5 (Homo sapiens, UniProt Q9UQL6); assay: In vitro HDAC5; type: biochemical
Chain of HDAC5 (Q9UQL6 whole entry, species assumed): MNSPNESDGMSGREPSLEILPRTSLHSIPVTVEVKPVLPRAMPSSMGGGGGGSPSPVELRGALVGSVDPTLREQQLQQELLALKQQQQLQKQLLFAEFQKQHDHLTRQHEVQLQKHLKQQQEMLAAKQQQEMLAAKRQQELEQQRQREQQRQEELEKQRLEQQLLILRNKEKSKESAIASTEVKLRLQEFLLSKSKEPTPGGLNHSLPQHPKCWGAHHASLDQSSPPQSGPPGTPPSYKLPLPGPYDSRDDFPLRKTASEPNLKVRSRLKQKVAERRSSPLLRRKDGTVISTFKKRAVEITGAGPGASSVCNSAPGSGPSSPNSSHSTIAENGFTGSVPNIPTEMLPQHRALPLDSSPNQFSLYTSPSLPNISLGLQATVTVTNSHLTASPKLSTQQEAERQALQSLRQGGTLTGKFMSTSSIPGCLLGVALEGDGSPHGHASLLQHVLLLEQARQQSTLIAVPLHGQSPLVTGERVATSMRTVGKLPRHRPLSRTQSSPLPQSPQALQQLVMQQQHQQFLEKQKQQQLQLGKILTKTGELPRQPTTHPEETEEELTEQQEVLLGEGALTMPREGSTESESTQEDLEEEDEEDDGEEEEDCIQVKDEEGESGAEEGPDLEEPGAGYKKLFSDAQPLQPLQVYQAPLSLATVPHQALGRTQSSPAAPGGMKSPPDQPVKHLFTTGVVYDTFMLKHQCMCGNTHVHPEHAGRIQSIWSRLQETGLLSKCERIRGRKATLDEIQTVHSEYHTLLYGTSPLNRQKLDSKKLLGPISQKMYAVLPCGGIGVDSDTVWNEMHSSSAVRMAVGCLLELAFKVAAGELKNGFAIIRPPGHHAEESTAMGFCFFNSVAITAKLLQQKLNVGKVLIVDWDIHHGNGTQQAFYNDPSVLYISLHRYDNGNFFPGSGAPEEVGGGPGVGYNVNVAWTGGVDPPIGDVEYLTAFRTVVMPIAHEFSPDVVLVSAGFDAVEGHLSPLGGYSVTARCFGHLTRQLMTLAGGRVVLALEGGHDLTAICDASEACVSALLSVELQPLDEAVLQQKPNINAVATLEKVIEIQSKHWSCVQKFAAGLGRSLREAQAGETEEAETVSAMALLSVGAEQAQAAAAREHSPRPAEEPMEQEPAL

[6] = Mouse plasma pharmacokinetics and brain-to-plasma ratio; type: in vivo

Row | Compound | induction of histone H4K12 acetylation (H4K12ac) [1] | induction of histone H3K9 acetylation (H3K9ac) [2] | further results
1 | NNC(=O)CCCCC(=O)NO [Compound 3a] | No induction | No induction | –
2 | NNC(=O)CCCCCC(=O)NO [Compound 3b] | No induction | No induction | –
3 | NNC(=O)CCCCCCC(=O)NO [Compound 7] | No induction | No induction | –
4 | O=C(CCCCC(=O)N/N=C/c1ccc(-c2ccccc2)cc1)NO [Compound 9a] | – | – | fold increase in IC50's over those of crebinostat (9b) ([3]; HDAC1, 2 or 3): approximately 20 fold
5 | O=C(CCCCCC(=O)N/N=C/c1ccc(-c2ccccc2)cc1)NO [Compound 9b, crebinostat] | greater increases; also recorded: more effective | greater increases; also recorded: more effective | brain Cmax [4]: 60 nM; activity toward HDAC5 [5]: no activity; fold reduction in IC50 versus SAHA ([3]; HDAC1, 2 or 3): > 5 fold
6 | O=C(CCCCCCC(=O)N/N=C/c1ccc(-c2ccccc2)cc1)NO [Compound 9c] | greater increases | greater increases | fold improved potency for inhibiting HDAC1-3 versus crebinostat (9b) ([3]; HDAC1-3, biochemical reaction): ~ 2 fold
7 | O=C(CCCCCC(=O)N/N=C/c1ccc(-c2cccnc2)cc1)NO [Compound 9f, neurinostat] | most potent | most potent | activity toward HDAC5 [5]: no activity; plasma maximum concentration ([6]; intraperitoneal 25 mg/kg, peripheral blood): 1.9 µM; brain-to-plasma ratios relative to those measured for crebinostat (9b) ([6]; time points 0.5, 1 and 2 hours): about twice
8 | COc1ccc(Br)c(/C=N/NC(=O)CCCCCC(=O)NO)c1 [Compound 9j] | more effective | more effective | –
9 | COc1cc(O)cc(OC)c1/C=N/NC(=O)CCCCCC(=O)NO [Compound 9k] | least potent | least potent | –
